In US8034818B2, “Therapeutic uses of derivatives of piperidinyl- and piperazinyl-alkyl carbamates” (Sanofi-Aventis, priority 2004, dated 2011):
Structures can show the parent of a compound that is named as a salt.

System: male OF1 mice
Assay: test of analgesia: abdominal tractions induced with PBQ (phenylbenzoquinone) i.p.
Assay type: in vivo, mouse
Details: (a) 1 mg/kg p.o. at 2 hours, PBQ 2 mg/kg i.p.
Experimental: The in vivo activity of the compounds of the invention was evaluated in a test of analgesia.
Thus, the intraperitoneal (i.p.) administration of PBQ (phenylbenzoquinone, 2 mg/kg in 0.9% sodium chloride solution containing 5% ethanol) to male OF1 mice weighing 25 to 30 g, causes abdominal tractions, on average 30 torsions or contractions during the period of 5 to 15 minutes after injection. The test compounds are administered orally or intraperitoneally as a 0.5% suspension in Tween 80, 60 minutes or 120 minutes before the administration of PBQ. Under these conditions, the most powerful compounds of the invention produce a 35% to 70% reduction in the number of tractions induced with PBQ, within a dose range of between 1 and 30 mg/kg.

SMILES	Reduction in the number of tractions (%)
CNC(=O)COC(=O)NCCC1CCN(c2cc3ccccc3cn2)CC1 [Compound 166, 2-(Methylamino)-2-oxoethyl 2-[1-(3-isoquinolyl)-4-piperidyl]ethylcarbamate]	−62% (a)

Same assay, conditions: (b) 3 mg/kg p.o. at 1 hour, PBQ 2 mg/kg i.p.

SMILES	Reduction in the number of tractions (%)
CNC(=O)COC(=O)NCCC1CCN(c2cccc(C)n2)CC1 [Compound 47, 2-(Methylamino)-2-oxoethyl 2-[1-(6-methyl-2-pyridyl)-4-piperidyl]ethylcarbamate hydrochloride]	−63% (b)
CNC(=O)COC(=O)NCCC1CCN(c2ccc3ccccc3n2)CC1 [Compound 126, 2-(Methylamino)-2-oxoethyl 2-[1-(2-quinolyl)-4-piperidyl]ethylcarbamate]	−43% (b)

System: not given
Assay: not given
Details: not given

SMILES	melting point
CNC(=O)COC(=O)NCCN1CCN(c2cccc3ccccc23)CC1 (as salt: hydrochloride) [Compound 38, 2-(Methylamino)-2-oxoethyl 2-[4-(1-naphthyl)-1-piperazinyl]ethylcarbamate hydrochloride]	166 °C
CNC(=O)COC(=O)NCCC1CCN(c2cccc(C)n2)CC1 (as salt: hydrochloride) [Compound 47, 2-(Methylamino)-2-oxoethyl 2-[1-(6-methyl-2-pyridyl)-4-piperidyl]ethylcarbamate hydrochloride]	95 to 100 °C
NC(=O)COC(=O)NCCC1CCN(c2cccc(C(F)(F)F)c2)CC1 [Compound 44, 2-Amino-2-oxoethyl 2-{1-[3-(trifluoromethyl)phenyl]-4-piperidyl}ethylcarbamate]	140 to 142 °C
CNC(=O)COC(=O)NCCC1CCN(c2cccc(CC(C)C)n2)CC1 [Compound 49, 2-(Methylamino)-2-oxoethyl 2-[1-(6-isobutyl-2-pyridyl)-4-piperidyl]ethylcarbamate]	97 to 99 °C
NC(=O)COC(=O)NCC1CCN(c2cccc(-c3ccccc3)n2)CC1 [Compound 58, 2-Amino-2-oxoethyl 2-[1-(6-phenyl-2-pyridyl)-4-piperidyl]methylcarbamate]	131 to 132 °C
CNC(=O)COC(=O)NCCC1CCN(c2ccc3ccccc3n2)CC1 [Compound 126, 2-(Methylamino)-2-oxoethyl 2-[1-(2-quinolyl)-4-piperidyl]ethylcarbamate]	125 to 128 °C
NC(=O)COC(=O)NCCC1CCN(c2ccc3ccccc3n2)CC1 [Compound 127, 2-Amino-2-oxoethyl 2-[1-(2-quinolyl)-4-piperidyl]ethylcarbamate]	135 to 137 °C

Results, then the molecule that gave them:

melting point	SMILES
208 to 212 °C (dec.)	CNC(=O)COC(=O)NCC1CCN(c2nccc3ccccc23)CC1 (as salt: hydrochloride) [Compound 154, 2-(Methylamino)-2-oxoethyl [1-(1-isoquinolyl)-4-piperidyl]methylcarbamate hydrochloride]
205 to 210 °C	CNC(=O)COC(=O)NCCC1CCN(c2cncc3ccccc23)CC1 (as salt: hydrochloride) [Compound 172, 2-(Methylamino)-2-oxoethyl 2-[1-(4-isoquinolyl)-4-piperidyl]ethylcarbamate hydrochloride]
147 to 149 °C	CNC(=O)COC(=O)NCCC1(F)CCN(c2ccc3ccccc3n2)CC1 [Compound 128, 2-(Methylamino)-2-oxoethyl 2-[4-fluoro-1-(2-quinolyl)-4-piperidyl]ethylcarbamate]
158 to 162 °C	CNC(=O)COC(=O)NCCC1CCN(c2ccc3c(Cl)cccc3n2)CC1 [Compound 130, 2-(Methylamino)-2-oxoethyl 2-[1-(5-chloro-2-quinolyl)-4-piperidyl]ethylcarbamate]
189 to 191 °C	NC(=O)COC(=O)NCCC1CCN(c2ccc3cc(Cl)ccc3n2)CC1 [Compound 137, 2-Amino-2-oxoethyl 2-[1-(6-chloro-2-quinolyl)-4-piperidyl]ethylcarbamate]
135 to 139 °C	NC(=O)COC(=O)NCCC1CCN(c2nccc3cc(F)ccc23)CC1 [Compound 158, 2-Amino-2-oxoethyl 2-[1-(6-fluoro-1-isoquinolyl)-4-piperidyl]ethylcarbamate]
156 to 158 °C	CNC(=O)COC(=O)NCCC1CCN(c2cc3ccccc3cn2)CC1 [Compound 166, 2-(Methylamino)-2-oxoethyl 2-[1-(3-isoquinolyl)-4-piperidyl]ethylcarbamate]
